# Experimental data: US4372890A, “Platinum compound” (Kureha Kagaku Kogyo Kabushiki Kaisha, priority 1980, dated 1983)
# Assays:
# mouse P-388 leukemia = assay: Antitumor effect to mouse P-388 leukemia (ILS); assay type: in vivo; conditions: 5 mg/kg, intraperitoneal, once a day for 5 days, P-388 in CDF1 mice
# Protocol: Antitumor effects of the products to mouse P-388 leukemia were tested.
# (§1) P-388 ascites cells obtained by a successive cultivation in DBA/2 mice were transplanted by the route of intraperitoneal injection into CDF1 mice (10 mice in one group) at a rate of 1×10^6 /mouse. From 24 hours after the transplantation, a solution of each compound in physiological saline solution was injected once a day for 5 days as 5 times by the route of intraperitoneal injection. Each average survival days (T) of the administered group and each average survival days (C) of control group were measured to calculate each percentage increase in life span (ILS(%))
# [1] = Weight decrease and kidney cell damage in the mice of the P-388 test; assay type: in vivo, CDF1 mice; conditions: 5 mg/kg intraperitoneal for 5 days
# Protocol: as §1
# [2] = Solubility of the products of the Examples in water and organic solvents; assay type: physicochemical
solubility in benzene and chloroform ([2]; benzene and chloroform),solubility in ethanol ([2]; ethanol),solubility in methanol ([2]; methanol),solubility in water ([2]; water),SMILES,"ILS (percentage increase in life span, T/C×100) (mouse P-388 leukemia)",kidney cell damage [1],weight decrease [1]
,,,,"N.N.[Cl][Pt][Cl] [Compound No. 5, cis-[diaminedichloroplatinum (II)]]",180%,kidney cell damage were observed for all of 10 mice,remarkable weight decrease
insoluble,soluble,soluble,soluble,COC(=O)C(N)C(N)C(=O)OC (stereo not shown) [Example 1],,,
